Results: patent US20250282827A1, “LIPIDATED POLYMYXIN ANALOGUES” (priority 2021, published 2025)
Values after ≈ are worked out from the molar mass of the structure shown. Like-named read-outs stand apart in the source and are kept apart here. Positions of bridges follow the written chain, without caps; N, C: chain ends. Non-standard residues stand in square brackets, D forms with d. Residues, ends and D or L forms follow the SMILES beside them. *: point of attachment. Ethyl(2-propionyloxy) = CCC(=O)OCC*; Ethyl(2-OPiv) = CC(C)(C)C(=O)OCC*; Ethyl(2-OBz) = O=C(OCC*)c1ccccc1; Lauroyl = CCCCCCCCCCCC(=O)*; Octanoyl = CCCCCCCC(=O)*; Dab = NCC[C@H](N)C(=O)O; Butyryl = CCCC(=O)*; Mpa = O=C(O)CCS

Experiments:
[1] = tested on: E. coli ATCC MS8345; format: cell-based, Escherichia coli
From the text: (§1) All 81 compounds prepared in Examples 2 and 3 underwent screening against a panel of Gram-negative bacterium to assess their ability to inhibit bacterial growth. […] The median value is presented.
Expansion of the polymyxin macrocycle by substituting […]) offered little advantage in antimicrobial activity but was generally well tolerated although for A. baumanni and P. aeruginosa this was detrimental.

[2] = tested on: E. coli ATCC 25922; format: cell-based, Escherichia coli
From the text: as §1

[3] = tested on: P. aeruginosa ATCC 27853; format: cell-based, Pseudomonas aeruginosa
From the text: as §1

[4] = tested on: A. baumannii ATCC 19606; format: cell-based, Acinetobacter baumannii
From the text: as §1

[5] = tested on: K. pneumoniae ATCC MS6671; format: cell-based, Klebsiella pneumoniae
From the text: as §1

[6] = tested on: K. pneumoniae ATCC 33495; format: cell-based, Klebsiella pneumoniae
From the text: as §1

[7] = tested on: K. pneumoniae ATCC 700603; format: cell-based, Klebsiella pneumoniae
From the text: as §1

[8] = colistin-resistant strain, median of triplicate

Row | Structure (SMILES) | MIC E. coli ATCC MS8345 ([1]; ATCC MS8345) [µg/mL] | MIC E. coli ATCC 25922 ([2]; ATCC 25922) [µg/mL] | MIC P. aeruginosa ATCC 27853 ([3]; ATCC 27853) [µg/mL] | MIC A. baumannii ATCC 19606 ([4]; ATCC 19606) [µg/mL] | MIC K. pneumoniae ATCC MS6671 ([5]; ATCC MS6671) [µg/mL] | MIC K. pneumoniae ATCC 33495 ([6]; ATCC 33495) [µg/mL] | MIC K. pneumoniae ATCC 700603 ([7]; ATCC 700603) [µg/mL] | MIC E. coli ATCC MS8345 [1, 8] [µg/mL] | MIC E. coli ATCC 25922 ([2]; median of triplicate) [µg/mL] | MIC P. aeruginosa ATCC 27853 ([3]; median of triplicate) [µg/mL] | MIC A. baumannii ATCC 19606 ([4]; median of triplicate) [µg/mL] | MIC K. pneumoniae ATCC MS6671 ([5]; median of triplicate) [µg/mL] | MIC K. pneumoniae ATCC 33495 ([6]; median of triplicate) [µg/mL] | MIC K. pneumoniae ATCC 700603 ([7]; median of triplicate) [µg/mL]
1 | CCC(=O)OCCSC[C@@H]1NC(=O)[C@@H](Cc2ccccc2)NC(=O)[C@H](CCN)NC(=O)[C@@H](NC(=O)[C@H](CCN)NC(=O)[C@@H](NC(=O)[C@H](CCN)NC(=O)[C@@H](N)CSCCOC(=O)C(C)(C)C)[C@@H](C)O)CCNC(=O)[C@H]([C@@H](C)O)NC(=O)[C@H](CCN)NC(=O)[C@H](CCN)NC1=O [Compound 45] (H-C(Ethyl(2-OPiv))[Dab]T[Dab][Dab][Dab][dF]C(Ethyl(2-propionyloxy))[Dab][Dab]T; lactam 5-C) | 16 to 32 | 0.25 (≈ 0.181 µM) | 16 (≈ 11.6 µM) | 2 to 4 | >32 | 0.25 to 0.5 | 0.25 to 0.5 |  |  |  |  |  |  | 
2 | CCCC(=O)N[C@@H](CSCCOC(=O)c1ccccc1)C(=O)N[C@@H](CCN)C(=O)N[C@H](C(=O)N[C@@H](CCN)C(=O)N[C@H]1CCNC(=O)[C@H]([C@@H](C)O)NC(=O)[C@H](CCN)NC(=O)[C@H](CCN)NC(=O)[C@H](CSCCOC(=O)c2ccccc2)NC(=O)[C@@H](Cc2ccccc2)NC(=O)[C@H](CCN)NC1=O)[C@@H](C)O [Compound 50] (Butyryl-C(Ethyl(2-OBz))[Dab]T[Dab][Dab][Dab][dF]C(Ethyl(2-OBz))[Dab][Dab]T; lactam 5-C) |  |  |  |  |  |  |  | 16 (≈ 10.5 µM) | 0.5 (≈ 0.328 µM) | 1 (≈ 0.657 µM) | 1 to 2 | >32 | 0.5 to 1 | 1 (≈ 0.657 µM)
3 | CCCCCCCC(=O)N[C@@H](CSCCOC(=O)c1ccccc1)C(=O)N[C@@H](CCN)C(=O)N[C@H](C(=O)N[C@@H](CCN)C(=O)N[C@H]1CCNC(=O)[C@H]([C@@H](C)O)NC(=O)[C@H](CCN)NC(=O)[C@H](CCN)NC(=O)[C@H](CSCCOC(=O)c2ccccc2)NC(=O)[C@@H](Cc2ccccc2)NC(=O)[C@H](CCN)NC1=O)[C@@H](C)O [Compound 51] (Octanoyl-C(Ethyl(2-OBz))[Dab]T[Dab][Dab][Dab][dF]C(Ethyl(2-OBz))[Dab][Dab]T; lactam 5-C) |  |  |  |  |  |  |  | 2 to 4 | 2 (≈ 1.27 µM) | 2 (≈ 1.27 µM) | 1 to 2 | >32 | 2 (≈ 1.27 µM) | 2 to 4
4 | CCCCCCCCCCCC(=O)N[C@@H](CSCCOC(=O)c1ccccc1)C(=O)N[C@@H](CCN)C(=O)N[C@H](C(=O)N[C@@H](CCN)C(=O)N[C@H]1CCNC(=O)[C@H]([C@@H](C)O)NC(=O)[C@H](CCN)NC(=O)[C@H](CCN)NC(=O)[C@H](CSCCOC(=O)c2ccccc2)NC(=O)[C@@H](Cc2ccccc2)NC(=O)[C@H](CCN)NC1=O)[C@@H](C)O [Compound 52] (Lauroyl-C(Ethyl(2-OBz))[Dab]T[Dab][Dab][Dab][dF]C(Ethyl(2-OBz))[Dab][Dab]T; lactam 5-C) |  |  |  |  |  |  |  | 2 to 4 | 2 to 4 | 4 (≈ 2.45 µM) | 2 to 4 | >32 | 2 to 4 | 4 (≈ 2.45 µM)
5 | CCC(=O)OCCSCCC(=O)N[C@@H](CCN)C(=O)N[C@H](C(=O)N[C@@H](CCN)C(=O)N[C@H]1CCNC(=O)[C@H]([C@@H](C)O)NC(=O)[C@H](CCN)NC(=O)[C@H](CCN)NC(=O)[C@H](CC(C)C)NC(=O)[C@@H](Cc2ccccc2)NC(=O)[C@H](CCN)NC1=O)[C@@H](C)O [Compound 59] ([Mpa](Ethyl(2-propionyloxy))[Dab]T[Dab][Dab][Dab][dF]L[Dab][Dab]T; lactam 5-C) | >32 | 0.5 (≈ 0.4 µM) | 2 (≈ 1.6 µM) | 32 (≈ 25.6 µM) | >32 | 0.5 (≈ 0.4 µM) | 1 (≈ 0.799 µM) |  |  |  |  |  |  | 
